According to patent publication US8410056B2, “Pro-oxidant anti-cancer compounds” (priority 2006, dated 2013):
Entries after “also recorded” stand apart in the source; their conditions may differ. Ends that are not written are not given here.

What was measured:
C1271 = conditions: Kogure et al, 2004; cited from earlier work
Jurkat = conditions: cited from earlier work
A549 = conditions: cited from earlier work
[1] = test system: retinoic acid receptors (RARs); conditions: reporter constructs; cited from earlier work
NB4, HT93 = conditions: cited from earlier work
[2] = target: T1, complex II/SDH-dependent activity in NeuTL cells (Mus musculus, UniProt Q8K2B3+Q9CQA3+Q9CXV1+Q9CZB0); assay: MTT reduction assay of complex II/SDH activity in whole cells; assay type: cell-based, murine; conditions: for inhibition of MTT reduction after MitoQ pre-incubation: cells pre-incubated 1 h with MitoQ; for enzymatic reduction of MTT: within a few hours of treatment
T1 construct: For specifically measuring complex II activity in whole cells; endogenous in cells; host or cells: NeuTL murine breast cancer cells
T1 sequence (Q8K2B3 43-664): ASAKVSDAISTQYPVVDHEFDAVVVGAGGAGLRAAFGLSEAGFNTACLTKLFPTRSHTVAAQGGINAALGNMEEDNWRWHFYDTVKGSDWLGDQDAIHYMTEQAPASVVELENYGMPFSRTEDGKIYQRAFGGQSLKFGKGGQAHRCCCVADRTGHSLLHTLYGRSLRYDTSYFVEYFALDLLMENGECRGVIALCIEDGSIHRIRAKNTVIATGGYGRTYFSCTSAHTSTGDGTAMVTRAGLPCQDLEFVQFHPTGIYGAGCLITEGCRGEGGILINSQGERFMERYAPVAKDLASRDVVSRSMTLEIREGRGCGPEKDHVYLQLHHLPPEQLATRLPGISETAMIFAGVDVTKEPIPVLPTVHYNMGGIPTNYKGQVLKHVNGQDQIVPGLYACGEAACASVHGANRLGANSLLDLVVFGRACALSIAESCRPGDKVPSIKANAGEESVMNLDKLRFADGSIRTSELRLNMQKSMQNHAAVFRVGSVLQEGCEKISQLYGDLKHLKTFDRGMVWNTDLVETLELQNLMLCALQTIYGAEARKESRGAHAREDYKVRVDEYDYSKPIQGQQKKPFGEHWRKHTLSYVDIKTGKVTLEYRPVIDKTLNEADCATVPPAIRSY
T1 sequence (Q9CQA3 31-282): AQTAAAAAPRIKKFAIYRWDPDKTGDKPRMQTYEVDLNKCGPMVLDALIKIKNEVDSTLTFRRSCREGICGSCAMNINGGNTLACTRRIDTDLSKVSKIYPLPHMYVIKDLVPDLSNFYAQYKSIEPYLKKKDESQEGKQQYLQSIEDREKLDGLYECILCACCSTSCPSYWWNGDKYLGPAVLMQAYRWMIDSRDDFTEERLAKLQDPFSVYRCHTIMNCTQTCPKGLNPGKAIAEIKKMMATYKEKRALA
T1 sequence (Q9CZB0 30-169): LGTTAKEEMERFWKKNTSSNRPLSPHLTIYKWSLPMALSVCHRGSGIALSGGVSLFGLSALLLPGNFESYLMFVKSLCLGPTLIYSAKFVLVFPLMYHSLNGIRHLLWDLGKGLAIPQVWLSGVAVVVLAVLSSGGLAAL
T1 sequence (Q9CXV1 57-159): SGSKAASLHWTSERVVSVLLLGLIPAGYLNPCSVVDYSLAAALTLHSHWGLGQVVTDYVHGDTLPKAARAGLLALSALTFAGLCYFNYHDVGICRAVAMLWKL
Procedure: MTT assay. MTT solutions were prepared immediately before use by dissolving 2.5 mg/ml 3-(4,5-dimethyl[…] (MTT) (Sigma) in PBS alone or phenol red-free RPMI medium containing 20 mM succinic acid, pH 7.4. Stock solutions of 3-nitropropionic acid (3NPA) in ethanol, thenoyltrifluoroacetone (TTFA) in DMSO, 3-BP in PBS, α-TOS in DMSO, and MitoQ (Alleva et al, 2003, James et al, 2005) in ethanol were prepared. The drugs were tested on NeuTL cells cultured in exponential growth phase in 96-well microtitre plates using 4-8 replicate wells per dilution assayed. To assess the ability of MitoQ to restore MTT reduction, cells were pre-incubated for 60 min with 2 or 5 μM MitoQ. Final concentrations of ethanol or DMSO in cultures were ≦0.1%. Treated and control cells were allowed to reduce MTT to blue formazan crystals for 2 or 4 h at 37° C. and 5% CO2. After incubation, culture supernatants were removed except for 30 μl, before the formazan crystals were solubilized by addition of 150 μl DMSO, and absorbance values were measured at 570 nm using a Fluorostar Optima plate reader.
To this end, the present inventors investigated whether α-TOS interferes with UbQ binding in complex II. For specifically measuring complex II activity in whole cells, a short-term (1-2 h) assay was used based on the reduction of the tetrazolium salt, MTT (Maehara et al, 1988). […] For this, oxidative respiration of murine NeuTL breast cancer cells was sustained on high levels of succinate (20 mM), thereby promoting the SDH activity of complex II (Maehara et al, 1988). The cells were then assayed within 1-2 h for their ability to enzymatically reduce MTT, which under conditions of high succinate becomes a specific indicator of complex II/SDH-dependent activity (Maehara et al, 1988, Berridge and Tan, 1993).

all cells = conditions: Zhang et al, 2001b; cited from earlier work
[3] = test system: breast carcinomas with high erbB2 expression; assay: Breast carcinomas in FVB/N2O2 c-neu mice, ultrasound imaging; assay type: in vivo
Procedure: FIG. 11. Peptide conjugate LTVSPWY-α-TOS (SEQ ID NO 1) suppresses breast carcinomas. FVB/N2O2 c-neu female mice of >7 months of age with breast carcinomas, as detected by ultrasound imaging (USI), were treated by intraperitoneal injection of the vehicle or 5 μmol per mouse per dose of LTVSPWY-α-TOS (SEQ ID NO 1) solubilised in corn oil/ethanol (100:5, v/v) at times shown. The tumours were visualised and quantified using USI and are expressed relative to their volume at the onset of the treatment (A). […] The volume was […] at the onset of the experiment for both tumors. Data shown are mean values±SD (n=4-6) and the USI images are representative of tumours from each group.
This example describes the targeting of an α-TOS pro-drug to cancer cells over-expressing the receptor tyrosine kinase erbB2. An adduct of α-TOS was linked to the heptapeptide LTVSPWY (SEQ ID NO 1), which peptide is known for targeting cancer cells over-expressing erbB2. […] In fact, there was an unexpected 90% relative reduction in size of treated tumors compared to the untreated control.

[4] = test system: erbB2 highly positive breast carcinomas; conditions: α-TOS 10 μmoles i.p. every 3 d; 3-BP 0.2 μmoles daily intratumorally
Procedure: (A) Nude mice were inoculated with MCF-7 cells and, after tumors became established, the animals were treated once every 3 d with 10 μmoles per mouse of α-TOS dissolved in DMSO or with DMSO alone, by intraperitoneal (i.p.) injection. Tumor size was measured using calipers and was correlated to the size of the carcinomas at the onset of the therapy. Four animals were used in each group. The results shown are mean values±S.E. The symbol ‘*’ denotes significant difference (p<0.05). (B) Female FVB/N erbB2 mice with palpable tumors (see General Materials and Methods) received either 10 μmoles α-TOS solubilized in corn oil/4% ethanol (n=11) or the corn oil/4% ethanol alone (control, n=9) by i.p. injection once every 3 d, or 0.2 μmoles 3-BP (n=8) in PBS at the tumor site every day. Tumor size was recorded using calipers. Two independent experiments were conducted. Results are represented as mean values±S.E. The symbol ‘*’ denotes significant difference (p<0.05) in the analysis of variance between the 3-BP and α-TOS curves.
Mouse tumor experiments. Nude mice were inoculated subcutaneously with MCF-7 cells (2×10^6 cells/mouse). After tumors developed (diameter of 3-7 mm), mice were injected intraperitoneally with 10 μmoles α-TOS in DMSO every 3 days. Control mice were injected with an equal volume (100 μl) of DMSO only. Tumor size was estimated by measuring with digital calipers. A colony of transgenic FVB/N2O2 rat c-neu mice carrying the rat HER-2/neu protooncogene driven by the MMTV promoter on the H-2^q FVB/N background (Guy et al, 1992) was established at the Griffith University Animal Facility and maintained under strict inbreeding conditions. The presence of the transgene was routinely confirmed by PCR. Approximately 70% of the female mice developed spontaneous mammary carcinomas with a mean latency time of 10 months. Female transgenic FVB/N2O2 rat c-neu mice bearing progressively growing tumors with a mean diameter of 10±5 mm were randomly assigned to control or treatment groups. Tumor size was measured using digital calipers. […]

[5] = test system: MDA-MB-453, MCF-7 and NeuTL breast cancer cells; assay: ATP bioluminescence assay; assay type: cell-based, human; murine; conditions: 6 or 24 h; normoxia or hypoxia
Procedure: (§1) Cell culture and treatment. […] Cells were cultured in DMEM with 10% FCS, 100 U/ml penicillin and 100 μg/ml streptomycin at 37° C. in a humidified atmosphere of 5% CO2. Mitochondrial complex I-deficient (Breen and Scheffler 1979; DeFrancesco et al 1976; Scheffler et al 2004) and complex II-deficient cells (Albayrak et al 2003; Oostveen et al 1995) were grown in DMEM with 10% FCS, […] glucose and non-essential amino acids.
(§2) At approximately 70% confluency, cells were treated with up to 50 μM α-TOS (Sigma), up to 100 μM 3-BP (Aldrich) or 30 ng/ml of human recombinant tumor necrosis factor-related apoptosis—inducing ligand (TRAIL) (Weber et al, 2002) under normoxic or hypoxic conditions. For hypoxia, cells overlaid with nitrogen-purged medium were placed in a hypoxic chamber pre-flushed extensively with nitrogen. The hypoxic chamber with cells was then placed in the incubator as required. α-TOS was dissolved in ethanol and used such that the final ethanol concentration in cell culture medium was <0.1% (v/v). Stock solutions of 3-BP were prepared in PBS prior to use.
ATP measurement. MDA-MB-453 and NeuTL cells were seeded at 2×10^5 per ml and MCF-7 cells at 1.2×10^5 per ml into 96-well tissue culture microtitre plates and allowed to recover overnight before use. Cells were incubated for 6 or 24 h with α-TOS or 3-BP under normoxia or hypoxia as described above. ATP levels were then measured using an ATP bioluminescence assay kit HSII (Roche Applied Science) according to the manufacturer's instructions. Briefly, control or treated cells were transferred into black microtitre plates after incubation for 5 min at room temperature with the cell lysis reagent. Luciferase reagent was added and the signal detected immediately using a Fluorostar Optima plate reader (BMG Labtech). Triplicate wells were read for each condition and data evaluated using a standard calibration curve prepared with known concentrations of ATP.

MCF-7 cells = assay: Apoptosis, annexin V-FITC method; assay type: cell-based, human; conditions: MCF-7 (erbB2-low); 24 h; normoxia or hypoxia
Procedure: as §1, §2
Apoptosis assessment. Apoptosis was quantified using the annexin V-FITC method, which detects phosphatidyl serine externalized in the early phases of apoptosis (Boersma et al, 1996). Briefly, cells were plated at 10^5 per well in 24-well plates and, after an overnight recuperation, treated with α-TOS or 3-BP alone or in combination. Floating and attached cells were harvested, washed with PBS, resuspended in 0.2 ml binding buffer (10 mM Hepes, 140 mM NaCl, 5 mM CaCl2, pH 7.4), incubated for 30 min at 4° C. with 2 μl annexin V-FITC (PharMingen), supplemented with 200 μl of 50 μg/ml propidium iodide (PI; Sigma), and analyzed by flow cytometry (FACScalibur, Becton Dickinson) using channel 1 for annexin V-FITC binding and channel 2 for PI staining. Cell death was quantified as the percentage of cells with increased annexin V binding and PI staining. […]

MDA-MB-453 cells = assay: Apoptosis, annexin V-FITC method; assay type: cell-based, human; conditions: for apoptosis: MDA-MB-453 (erbB2-high), normoxia or hypoxia; for apoptosis after Akt1 knock-down: pre-treated with 60 pM Akt1 siRNA for 24 h, then drug 24 h
Procedure: as §1, §2
Apoptosis assessment. Apoptosis was quantified using the annexin V-FITC method, which detects phosphatidyl serine externalized in the early phases of apoptosis (Boersma et al, 1996). Briefly, cells were plated at 10^5 per well in 24-well plates and, after an overnight recuperation, treated with α-TOS or 3-BP alone or in combination. Floating and attached cells were harvested, washed with PBS, resuspended in 0.2 ml binding buffer (10 mM Hepes, 140 mM NaCl, 5 mM CaCl2, pH 7.4), incubated for 30 min at 4° C. with 2 μl annexin V-FITC (PharMingen), supplemented with 200 μl of 50 μg/ml propidium iodide (PI; Sigma), and analyzed by flow cytometry (FACScalibur, Becton Dickinson) using channel 1 for annexin V-FITC binding and channel 2 for PI staining. Cell death was quantified as the percentage of cells with increased annexin V binding and PI staining.
RNA interference (RNAi). Short-interfering RNA (siRNA) oligonucleotides with 3′-dTdT overhangs specific for Akt1 were synthesized by Qiagen. The sequences are as follows: target sequence: […] (SEQ ID NO 2); siRNA duplex sequences: sense—r([…] )dTdT (SEQ ID NO 3), antisense—r([…] )dTdT (SEQ ID NO 4). The transfection of cultured MDA-MB-453 cells with siRNA was performed using OligofectAmine (Invitrogen) and OptiMEM according to the manufacturer's instructions. Briefly, cells were allowed to reach 50% confluency and supplemented with […] siRNA pre-incubated with OligofectAmine and overlayed with OptiMEM. Cells were washed 24 h later with PBS, overlayed with complete DMEM and treated as required after an additional 24 h.
Transfection of MDA-MB-453 cells with siRNAs was performed using OligofectAmine and OptiMEM. Briefly, cells were allowed to reach ˜50% confluency and supplemented with 60 pmol/l siRNA pre-incubated with OligofectAmine and overlayed with OptiMEM. Cells were washed 24 h later with PBS, overlaid with complete DMEM, cultured for an additional 24 h, 48 h and transgene expression confirmed using Western blotting before they were used for further experiments.

B16-F1/nude mice = conditions: Kogure et al, 2005; cited from earlier work

Molecule: Cc1c(C)c2c(c(C)c1OC(=O)CCCCCC(=O)O)CCC(C)(CCCC(C)CCCC(C)CCCC(C)C)O2 (stereo not shown) [Compound 24]
- pro-apoptotic activity (C1271): no activity at all

Molecule: COc1c(C)c(C)c2c(c1C)CCC(C)(CCCC(C)CCCC(C)CCCC(C)C)O2 (stereo not shown) [Compound 18]
- pro-apoptotic activity (Jurkat): inactive

Molecule: CCC(=O)Oc1c(C)c(C)c2c(c1C)CCC(C)(CCCC(C)CCCC(C)CCCC(C)C)O2 (stereo not shown) [Compound 19]
- pro-apoptotic activity (A549): inactive

Molecule: CCOC(=O)CCC(=O)Oc1c(C)c(C)c2c(c1C)CCC(C)(CCCC(C)CCCC(C)CCCC(C)C)O2 (stereo not shown) [Compound 25]
- pro-apoptotic activity (C1271): without pro-apoptotic activity

Molecule: CC(C=CC1=C(C)CCCC1(C)C)=CC=CC(C)=CC(=O)Oc1c(C)c(C)c2c(c1C)CCC(C)(CCCC(C)CCCC(C)CCCC(C)C)O2 (stereo not shown) [Compound 29]
- agonism at retinoic acid receptors [1]: acted as agonists for retinoic acid receptors (RARs)

Molecule: CC(C=CC1=C(C)CCCC1(C)C)=CC=CC(C)=CC(=O)Oc1c(C)c(C)c2c(c1C)CCC(C)(CCCC(C)CCCC(C)CCCC(C)C)O2 (stereo not shown) [Compound 28]
- agonism at retinoic acid receptors [1]: acted as agonists for retinoic acid receptors (RARs)
- IC50 (NB4, HT93): 100 to 1000 nM

Molecule: O=C(CC(=O)C(F)(F)F)c1cccs1 [TTFA, 4,4,4-trifluoro-1-(2-thienyl)-1,3-butanedione]
- inhibition of MTT reduction after MitoQ pre-incubation [2]: significantly overcome by pre-incubation of the cells with MitoQ
- enzymatic reduction of MTT [2]: significantly inhibited the enzymatic reduction of MTT
- toxicity to cells (all cells): toxic to all cells

Molecule: LTVSPWY-α-TOS: adduct of α-TOS linked to the heptapeptide LTVSPWY (SEQ ID NO 1) (also: α-tocopheryl succinate adduct, attachment site not given here)
- tumour volume ([3]; day 15, 5 μmol per dose per mouse i.p., representative tumour, volume −40 mm^3 at onset): 34.8 mm^3
- relative reduction in size of treated tumors compared to the untreated control ([3]; mouse, in vivo): 90%

Molecule: O=C(O)C(=O)CBr [Compound 3-BP, 3-bromopyruvate, reference compound]
- tumor growth [4]: either growth arrest or partial regression
- cellular ATP levels [5]: more potent inhibitors than α-TOS
- complex II-mediated MTT reduction ([2]; absence of added succinate, 4 h): potent inhibitors of the complex II-mediated MTT reduction
- inhibition of MTT reduction after MitoQ pre-incubation [2]: not significantly different
- enzymatic reduction of MTT [2]: significant decreases occurring in the levels of MTT reduction
- apoptosis (MCF-7 cells): more sensitive to killing by 3-BP under hypoxia than normoxia
- apoptosis (MDA-MB-453 cells): strikingly resistant to killing by 3-BP, even with concentrations as high as 100 μM
- apoptosis after Akt1 knock-down (MDA-MB-453 cells): particularly marked increase in cytotoxic responsiveness; also recorded: sensitizes

Molecule: Cc1c(C)c2c(c(C)c1OC(=O)C(=O)O)CCC(C)(CCCC(C)CCCC(C)CCCC(C)C)O2 (stereo not shown) [Compound 10]
- cytotoxicity in mice inoculated with B16-F1 melanoma cells (B16-F1/nude mice): non-selective cytotoxicity

Molecule: Cc1c(C)c2c(c(C)c1OC(=O)CC(=O)O)CCC(C)(CCCC(C)CCCC(C)CCCC(C)C)O2 (stereo not shown) [Compound 11]
- cytotoxicity in mice inoculated with B16-F1 melanoma cells (B16-F1/nude mice): non-selective cytotoxicity

B1: TRAIL: human recombinant tumor necrosis factor-related apoptosis—inducing ligand (protein, UniProt P50591 1-281, looked up)
Tumor necrosis factor ligand …: MAMMEVQGGPSLGQTCVLIVIFTVLLQSLCVAVTYVYFTNELKQMQDKYSKSGIACFLKEDDSYWDPNDEESMNSPCWQVKWQLRQLVRKMILRTSEETISTVQEKQQNISPLVRERGPQRVAAHITGTRGRSNTLSSPNSKNEKALGRKINSWESSRSGHSFLSNLHLRNGELVIHEKGFYYIYSQTYFRFQEEIKENTKNDKQMVQYIYKYTSYPDPILLMKSARNSCWSKDAEYGLYSIYQGGIFELKENDRIFVSVTNEHLIDMDHEASFFGAFLVG
- cellular ATP levels [5]: more potent inhibitors than α-TOS
- apoptosis (MDA-MB-453 cells): much more resistant to apoptosis
- apoptosis after Akt1 knock-down (MDA-MB-453 cells): sensitizes
